According to PubChem BioAssay (NCI):
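GI50: concentration for 50% inhibition of growth. TGI: total growth inhibition.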

Experiments:
Assay in all cases: NCI tumour cell line growth inhibition, 384-well format
OVCAR-8 ovarian = system: OVCAR-8 ovarian
ACHN renal = system: ACHN renal
SK-OV-3 ovarian = system: SK-OV-3 ovarian
A549 NSCLC = system: A549 NSCLC
NCI-H460 NSCLC = system: NCI-H460 NSCLC
DU-145 prostate = system: DU-145 prostate
NCI-H23 lung = system: NCI-H23 lung
PC-3 prostate = system: PC-3 prostate
NCI-H226 lung = system: NCI-H226 lung
TK-10 renal = system: TK-10 renal
IGROV1 ovarian = system: IGROV1 ovarian
SR leukemia = system: SR leukemia
MOLT-4 leukemia = system: MOLT-4 leukemia
BT-549 breast = system: BT-549 breast
HL-60(TB) leukemia = system: HL-60(TB) leukemia
RXF 393 renal = system: RXF 393 renal
HCT-15 colon = system: HCT-15 colon
UACC-62 melanoma = system: UACC-62 melanoma
OVCAR-4 ovarian = system: OVCAR-4 ovarian
M14 melanoma = system: M14 melanoma
COLO 205 colon = system: COLO 205 colon
SNB-19 CNS = system: SNB-19 CNS
MDA-MB-435 melanoma = system: MDA-MB-435 melanoma
HCT-116 colon = system: HCT-116 colon
MCF7 breast = system: MCF7 breast
SF-268 CNS = system: SF-268 CNS
RPMI-8226 leukemia = system: RPMI-8226 leukemia
OVCAR-5 ovarian = system: OVCAR-5 ovarian
MDA-MB-231 breast = system: MDA-MB-231 breast
SK-MEL-5 melanoma = system: SK-MEL-5 melanoma
KM12 colon = system: KM12 colon
SF-539 CNS = system: SF-539 CNS
UACC-257 melanoma = system: UACC-257 melanoma
OVCAR-3 ovarian = system: OVCAR-3 ovarian
HOP-92 NSCLC = system: HOP-92 NSCLC
HCC-2998 colon = system: HCC-2998 colon
SNB-75 CNS = system: SNB-75 CNS
NCI-H522 lung = system: NCI-H522 lung
EKVX NSCLC = system: EKVX NSCLC
T-47D breast = system: T-47D breast
SN12C renal = system: SN12C renal
U251 glioblastoma = system: U251 glioblastoma
SK-MEL-28 melanoma = system: SK-MEL-28 melanoma
NCI-H322M lung = system: NCI-H322M lung
LOX IMVI melanoma = system: LOX IMVI melanoma
MALME-3M melanoma = system: MALME-3M melanoma
A498 renal = system: A498 renal
CAKI-1 renal = system: CAKI-1 renal
NCI/ADR-RES ovarian = system: NCI/ADR-RES ovarian
HS 578T breast = system: HS 578T breast
SF-295 CNS = system: SF-295 CNS
HT29 colon = system: HT29 colon
MDA-MB-468 breast = system: MDA-MB-468 breast
HOP-62 NSCLC = system: HOP-62 NSCLC

**Q.** `CC(C)c1cc(C(=O)N2Cc3ccc(CN4CCN(C)CC4)cc3C2)c(O)cc1O` was tested. Which GI50 (OVCAR-8 ovarian) did it give?
**A.** 37.9 nM

**Q.** What about the TGI (OVCAR-8 ovarian) of the same compound?
**A.** 175 nM

**Q.** What about the GI50 (ACHN renal) of the same compound?
**A.** 59.4 nM

**Q.** What about the TGI (ACHN renal) of the same compound?
**A.** 2840 nM

**Q.** What about the GI50 (SK-OV-3 ovarian) of the same compound?
**A.** 84.3 nM

**Q.** And the TGI (SK-OV-3 ovarian)?
**A.** 12100 nM

**Q.** And the GI50 (A549 NSCLC)?
**A.** 64.1 nM

**Q.** What about the TGI (A549 NSCLC) of the same compound?
**A.** 16800 nM

**Q.** And the GI50 (NCI-H460 NSCLC)?
**A.** 17.9 nM

**Q.** And the TGI (NCI-H460 NSCLC)?
**A.** 43.6 nM

**Q.** What about the GI50 (DU-145 prostate) of the same compound?
**A.** 30.3 nM

**Q.** What about the TGI (DU-145 prostate) of the same compound?
**A.** 88.7 nM

**Q.** What about the GI50 (NCI-H23 lung) of the same compound?
**A.** 38.2 nM

**Q.** And the TGI (NCI-H23 lung)?
**A.** 13300 nM

**Q.** And the GI50 (PC-3 prostate)?
**A.** 46.5 nM

**Q.** What about the TGI (PC-3 prostate) of the same compound?
**A.** 319 nM

**Q.** What about the GI50 (NCI-H226 lung) of the same compound?
**A.** 75.8 nM

**Q.** And the TGI (NCI-H226 lung)?
**A.** 838 nM

**Q.** And the GI50 (TK-10 renal)?
**A.** 45 nM

**Q.** And the TGI (TK-10 renal)?
**A.** 856 nM

**Q.** What about the GI50 (IGROV1 ovarian) of the same compound?
**A.** 37.7 nM

**Q.** What about the TGI (IGROV1 ovarian) of the same compound?
**A.** 216 nM

**Q.** What about the GI50 (SR leukemia) of the same compound?
**A.** 13.8 nM

**Q.** And the TGI (SR leukemia)?
**A.** 36.8 nM

**Q.** And the GI50 (MOLT-4 leukemia)?
**A.** 19.4 nM

**Q.** And the TGI (MOLT-4 leukemia)?
**A.** 35.7 nM

**Q.** What about the GI50 (BT-549 breast) of the same compound?
**A.** 32.1 nM

**Q.** And the TGI (BT-549 breast)?
**A.** 528 nM

**Q.** And the GI50 (HL-60(TB) leukemia)?
**A.** 21.8 nM

**Q.** What about the TGI (HL-60(TB) leukemia) of the same compound?
**A.** 41.7 nM

**Q.** What about the GI50 (RXF 393 renal) of the same compound?
**A.** 33.8 nM

**Q.** And the TGI (RXF 393 renal)?
**A.** 11300 nM

**Q.** And the GI50 (HCT-15 colon)?
**A.** 32.2 nM

**Q.** And the TGI (HCT-15 colon)?
**A.** 10200 nM

**Q.** And the GI50 (UACC-62 melanoma)?
**A.** 113 nM

**Q.** And the TGI (UACC-62 melanoma)?
**A.** 1680 nM

**Q.** What about the GI50 (OVCAR-4 ovarian) of the same compound?
**A.** 33.2 nM

**Q.** What about the TGI (OVCAR-4 ovarian) of the same compound?
**A.** 1700 nM

**Q.** And the GI50 (M14 melanoma)?
**A.** 47.9 nM

**Q.** And the TGI (M14 melanoma)?
**A.** 2690 nM

**Q.** And the GI50 (COLO 205 colon)?
**A.** 23.7 nM

**Q.** And the TGI (COLO 205 colon)?
**A.** 62.9 nM

**Q.** And the GI50 (SNB-19 CNS)?
**A.** 76.4 nM

**Q.** And the TGI (SNB-19 CNS)?
**A.** 710 nM

**Q.** What about the GI50 (MDA-MB-435 melanoma) of the same compound?
**A.** 35.3 nM

**Q.** And the TGI (MDA-MB-435 melanoma)?
**A.** 10500 nM

**Q.** And the GI50 (HCT-116 colon)?
**A.** 57.6 nM

**Q.** And the TGI (HCT-116 colon)?
**A.** 11700 nM

**Q.** What about the GI50 (MCF7 breast) of the same compound?
**A.** 37.9 nM

**Q.** What about the TGI (MCF7 breast) of the same compound?
**A.** 11100 nM

**Q.** What about the GI50 (SF-268 CNS) of the same compound?
**A.** 71.1 nM

**Q.** And the TGI (SF-268 CNS)?
**A.** 16200 nM

**Q.** What about the GI50 (RPMI-8226 leukemia) of the same compound?
**A.** 40.3 nM

**Q.** And the TGI (RPMI-8226 leukemia)?
**A.** 156 nM

**Q.** And the GI50 (OVCAR-5 ovarian)?
**A.** 38.7 nM

**Q.** What about the TGI (OVCAR-5 ovarian) of the same compound?
**A.** 186 nM

**Q.** And the GI50 (MDA-MB-231 breast)?
**A.** 142 nM

**Q.** What about the TGI (MDA-MB-231 breast) of the same compound?
**A.** 775 nM

**Q.** And the GI50 (SK-MEL-5 melanoma)?
**A.** 23.7 nM

**Q.** What about the TGI (SK-MEL-5 melanoma) of the same compound?
**A.** 1330 nM

**Q.** What about the GI50 (KM12 colon) of the same compound?
**A.** 37.1 nM

**Q.** And the TGI (KM12 colon)?
**A.** 12500 nM

**Q.** And the GI50 (SF-539 CNS)?
**A.** 40.4 nM

**Q.** And the TGI (SF-539 CNS)?
**A.** 10400 nM

**Q.** What about the GI50 (UACC-257 melanoma) of the same compound?
**A.** 186 nM

**Q.** What about the TGI (UACC-257 melanoma) of the same compound?
**A.** 5190 nM

**Q.** And the GI50 (OVCAR-3 ovarian)?
**A.** 34.3 nM

**Q.** What about the TGI (OVCAR-3 ovarian) of the same compound?
**A.** 93.5 nM

**Q.** And the GI50 (HOP-92 NSCLC)?
**A.** 217 nM

**Q.** What about the TGI (HOP-92 NSCLC) of the same compound?
**A.** 1600 nM

**Q.** What about the GI50 (HCC-2998 colon) of the same compound?
**A.** 12.4 nM

**Q.** And the TGI (HCC-2998 colon)?
**A.** 31.7 nM

**Q.** And the GI50 (SNB-75 CNS)?
**A.** 52.5 nM

**Q.** And the TGI (SNB-75 CNS)?
**A.** 11600 nM

**Q.** And the GI50 (NCI-H522 lung)?
**A.** 20.6 nM

**Q.** And the TGI (NCI-H522 lung)?
**A.** 42.3 nM

**Q.** And the GI50 (EKVX NSCLC)?
**A.** 46.1 nM

**Q.** What about the TGI (EKVX NSCLC) of the same compound?
**A.** 8590 nM

**Q.** And the GI50 (T-47D breast)?
**A.** 172 nM

**Q.** What about the TGI (T-47D breast) of the same compound?
**A.** 11600 nM

**Q.** And the GI50 (SN12C renal)?
**A.** 24.4 nM

**Q.** What about the TGI (SN12C renal) of the same compound?
**A.** 125 nM

**Q.** And the GI50 (U251 glioblastoma)?
**A.** 34.3 nM

**Q.** What about the TGI (U251 glioblastoma) of the same compound?
**A.** 97.3 nM

**Q.** What about the GI50 (SK-MEL-28 melanoma) of the same compound?
**A.** 400 nM

**Q.** And the TGI (SK-MEL-28 melanoma)?
**A.** 17100 nM

**Q.** And the GI50 (NCI-H322M lung)?
**A.** 84.7 nM

**Q.** And the TGI (NCI-H322M lung)?
**A.** 4760 nM

**Q.** What about the GI50 (LOX IMVI melanoma) of the same compound?
**A.** 39.2 nM

**Q.** And the TGI (LOX IMVI melanoma)?
**A.** 146 nM

**Q.** And the GI50 (MALME-3M melanoma)?
**A.** 61.5 nM

**Q.** And the TGI (MALME-3M melanoma)?
**A.** 694 nM

**Q.** What about the GI50 (A498 renal) of the same compound?
**A.** 82.2 nM

**Q.** And the TGI (A498 renal)?
**A.** 11300 nM

**Q.** And the GI50 (CAKI-1 renal)?
**A.** 342 nM

**Q.** What about the TGI (CAKI-1 renal) of the same compound?
**A.** 17300 nM

**Q.** And the GI50 (NCI/ADR-RES ovarian)?
**A.** 166 nM

**Q.** And the TGI (NCI/ADR-RES ovarian)?
**A.** 515 nM

**Q.** What about the GI50 (HS 578T breast) of the same compound?
**A.** 131 nM

**Q.** What about the TGI (HS 578T breast) of the same compound?
**A.** 2330 nM

**Q.** And the GI50 (SF-295 CNS)?
**A.** 40.7 nM

**Q.** What about the TGI (SF-295 CNS) of the same compound?
**A.** 256 nM

**Q.** What about the GI50 (HT29 colon) of the same compound?
**A.** 40.5 nM

**Q.** And the TGI (HT29 colon)?
**A.** 11300 nM

**Q.** And the GI50 (MDA-MB-468 breast)?
**A.** 37.1 nM

**Q.** And the TGI (MDA-MB-468 breast)?
**A.** 158 nM

**Q.** What about the GI50 (HOP-62 NSCLC) of the same compound?
**A.** 47.4 nM

**Q.** And the TGI (HOP-62 NSCLC)?
**A.** 357 nM
